From patent US7148204B2, “Antisense modulation of bcl-x expression” (Isis Pharmaceuticala, Inc., priority 1998, dated 2006)

Tests used:
Shionogi tumor cells = assay: MTT assay, taxol chemosensitivity of Shionogi cells; assay type: cell-based; conditions: Mus musculus, without ISIS 16009
Procedure: The in vitro growth inhibitory effects of antisense oligonucleotides and/or taxol on Shionogi tumor cells were asessed by the MTT assay (Miyake et al., 1998). Briefly, 1×10^4 cells were seeded in each well of 96-well microtiter plates and allowed to attach overnight. Cells were then treated once daily with 500 nM oligonucleotide for 2 days. Following oligonucleotide treatment, cells were treated with various concentrations of taxol. After a 48 hour incubation, 20 μl of 5 mg/ml MTT (Sigma) in PBS was added to each well, followed by incubation for 4 hr at 37° C. The formazan crystals were dissolved in DMSO. The optical density was determined with a microculture plate reader at 540 nm. Absorbance values were normalized to the values obtained for the vehicle-treated cells to determine the percent of survival. Each assay was performed in triplicate.

[1] = WST-1 viability assay of MO59K cells with taxol; assay type: cell-based; conditions: human
Procedure: Cells were seeded at a density of 0.25×10^6 in 6-well plates 24 hours before oligonucleotide treatment. Cultures were then incubated for 4 hours at 37° C. with 200 nM oligonucleotide in the presence of 10 μl Lipofectin as an uptake enhancer, according to the manufacturer's protocol. After incubation, the oligonucleotide-lipofectin mixture was replaced with complete medium and cells were cultured as described above.
Viability assays were performed in 96-well plates (Costar) on cells cultured as described above. Cells were incubated with taxol in 10 μl medium to a final concentration of 2.5 nM. Controls contained 10 μl medium with the corresponding amount of saline. Viability was determined with the […] WST-1 assay (Boehringer mannheim, Indianapolis, Ind.). and measured using a Dynatech MR-7000 ELISA reader acording to the manufacturer's instructions.

IC50 (Shionogi tumor cells): 100 nM
SMILES: CC(=O)O[C@H]1C(=O)[C@@]2(C)[C@H]([C@H](OC(=O)c3ccccc3)[C@]3(O)C[C@H](OC(=O)[C@H](O)[C@@H](NC(=O)c4ccccc4)c4ccccc4)C(C)=C1C3(C)C)[C@]1(OC(C)=O)CO[C@@H]1C[C@@H]2O [taxol]
viability at 2 days, 2.5 nM ([1]; taxol 2.5 nM added at day 2, read-out: cell viability after 4 days): 63%
cytotoxicity at 24 h, 2.5 nM ([1]; taxol 2.5 nM, after 24 hours, read-out: reduction of viability): 25%
cytotoxicity at 48 h, 2.5 nM ([1]; taxol 2.5 nM, after 48 hours, read-out: reduction of viability): 37%
